In US6737383B1, “Herbicidal oxadiazolidines” (priority 1999, dated 2004):

Assays:
smallflower flatsedge = test: Test B flood test smallflower flatsedge; assay type: in vivo, Cyperus difformis
Method in brief: (§1)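 Read-out is a visual response score from 0 (no effect) to 10 (complete control), assigned by comparison with untreated controls. Treatment was applied at the 2-leaf stage, and plants stayed in the greenhouse for twelve to sixteen days before scoring.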

surinam grass = test: Test B pre/postemergence surinam grass; assay type: in vivo, Brachiaria decumbens
Method in brief: (§2)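 Herbicidal effect was estimated by eye on a ten-point control scale after plants spent twelve to sixteen days in a greenhouse following soil or foliar treatment. Foliar sprays targeted plants at one to four leaves; all doses were formulated in a non-phytotoxic solvent with surfactant.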

wild oat = test: Test B pre/postemergence wild oat; assay type: in vivo, Avena fatua
Method in brief: as §2

cocklebur = test: Test B pre/postemergence cocklebur; assay type: in vivo, Xanthium strumarium; settings: for Cocklebur plant response rating: Postemergence; for Plant response rating, Cocklebur: Preemergence
Method in brief: as §2

soybean = test: Test B pre/postemergence soybean; assay type: in vivo, Glycine max
Method in brief: as §2

giant foxtail = test: Test B pre/postemergence giant foxtail; assay type: in vivo, Setaria faberii
Method in brief: as §2

pigweed = test: Test B pre/postemergence pigweed; assay type: in vivo, Amaranthus retroflexus
Method in brief: as §2

blackgrass = test: Test B pre/postemergence blackgrass; assay type: in vivo, Alopecurus myosuroides
Method in brief: as §2

rice = test: Test B flood test rice; assay type: in vivo, Oryza sativa
Method in brief: as §1

bedstraw = test: Test B pre/postemergence bedstraw; assay type: in vivo, Galium aparine; settings: for Bedstraw plant response rating: Postemergence; for Plant response rating, Bedstraw: Preemergence
Method in brief: as §2

corn = test: Test B pre/postemergence corn; assay type: in vivo, Zea mays; settings: for Corn plant response rating: Postemergence; for Plant response rating, Corn: Preemergence
Method in brief: as §2

velvetleaf = test: Test B pre/postemergence velvetleaf; assay type: in vivo, Abutilon theophrasti
Method in brief: as §2

crabgrass = test: Test B pre/postemergence crabgrass; assay type: in vivo, Digitaria sanguinalis
Method in brief: as §2

morningglory = test: Test B pre/postemergence morningglory; assay type: in vivo, Ipomoea hederacea; settings: for Morningglory plant response rating: Postemergence; for Plant response rating, Morningglory: Preemergence
Method in brief: as §2

bamyardgrass = test: Test B flood test barnyardgrass; assay type: in vivo, Echinochloa crus-galli
Method in brief: as §1

wheat = test: Test B pre/postemergence wheat; assay type: in vivo, Triticum aestivum
Method in brief: as §2

[1] = Postemergence, Rate 62 g/ha, scale 0 to 10, 0 is no effect, 10 is complete control
[2] = Rate 125 g/ha, Postemergence section (flood test species), scale 0 to 10, 0 no effect, 10 complete control
[3] = Rate 500 g/ha, listed under Postemergence (flood test species), scale 0 to 10, 0 no effect, 10 complete control
[4] = flood test, listed under Postemergence, Rate 250 g/ha, scale 0 to 10, 0 no effect, 10 complete control
[5] = Postemergence, Rate 250 g/ha, scale 0 to 10, 0 no effect, 10 complete control
[6] = Preemergence, Rate 62 g/ha, scale 0 to 10, 0 is no effect, 10 is complete control
[7] = Preemergence, Rate 125 g/ha, scale 0 to 10 (0 no effect, 10 complete control)
[8] = Preemergence, Rate 250 g/ha, scale of 0 to 10 where 0 is no effect and 10 is complete control
[9] = Preemergence, Rate 500 g/ha, scale 0 (no effect) to 10 (complete control)
[10] = Rate 125 g/ha, Postemergence, scale 0 to 10, 0 no effect, 10 complete control
[11] = Rate 500 g/ha, Postemergence, scale 0 to 10, 0 no effect, 10 complete control
[12] = Rate 62 g/ha, scale 0 to 10, 0 is no effect, 10 is complete control
[13] = Rate 250 g/ha, scale 0 to 10, 0 no effect, 10 complete control
[14] = Rate 125 g/ha, scale 0 to 10 (0 no effect, 10 complete control)
[15] = Rate 250 g/ha, scale of 0 to 10 where 0 is no effect and 10 is complete control
[16] = Rate 125 g/ha, scale 0 to 10, 0 no effect, 10 complete control
[17] = Rate 500 g/ha, scale 0 to 10, 0 no effect, 10 complete control

## CCc1cccc(C)c1-n1c(=O)on(C(=O)N(c2ccc(F)cc2)C(C)C)c1=O [Compound 52]
Smallflower flatsedge; [1]
  S. Flatsedge plant response rating: 0
Smallflower flatsedge; [2]
  S. Flatsedge plant response rating: 0
Smallflower flatsedge; [3]
  S. Flatsedge plant response rating: 0
Smallflower flatsedge; [4]
  S. Flatsedge plant response rating: 0
Surinam grass; [1]
  B. signalgrass plant response rating: 0
Surinam grass; [5]
  B. signalgrass plant response rating: 0
Surinam grass; [6]
  Plant response rating, B. signalgrass: 0
Surinam grass; [7]
  Plant response rating, B. signalgrass: 0
Surinam grass; [8]
  Plant response rating, B. signalgrass: 0
Surinam grass; [9]
  B. signalgrass plant response rating: 6
Surinam grass; [10]
  B. signalgrass plant response rating: 0
Surinam grass; Rate 500 g/ha, Postemergence, scale of 0 to 10 where 0 is no effect and 10 is complete control
  B. signalgrass plant response rating: 1
Wild oat; [1]
  Wild oats plant response rating: 0
Wild oat; [5]
  Wild oats plant response rating: 1
Wild oat; [7]
  Plant response rating, Wild oats: 0
Wild oat; [8]
  Plant response rating, Wild oats: 0
Wild oat; [9]
  Wild oats plant response rating: 1
Wild oat; [10]
  Wild oats plant response rating: 0
Wild oat; [11]
  Wild oats plant response rating: 1
cocklebur; [12]
  Cocklebur plant response rating: 0
  Plant response rating, Cocklebur: 0
cocklebur; [13]
  Cocklebur plant response rating: 0
cocklebur; [14]
  Plant response rating, Cocklebur: 0
cocklebur; [15]
  Plant response rating, Cocklebur: 0
cocklebur; [16]
  Cocklebur plant response rating: 0
cocklebur; [17]
  Cocklebur plant response rating: 0
soybean; [1]
  Soybean plant response rating: 2
soybean; [5]
  Soybean plant response rating: 2
soybean; [6]
  Plant response rating, Soybean: 0
soybean; [7]
  Plant response rating, Soybean: 0
soybean; [8]
  Plant response rating, Soybean: 0
soybean; [9]
  Soybean plant response rating: 0
soybean; [10]
  Soybean plant response rating: 2
soybean; [11]
  Soybean plant response rating: 2
Giant foxtail; [1]
  Giant foxtail plant response rating: 0
Giant foxtail; [5]
  Giant foxtail plant response rating: 3
Giant foxtail; [6]
  Plant response rating, Giant foxtail: 3
Giant foxtail; [7]
  Plant response rating, Giant foxtail: 5
Giant foxtail; [8]
  Plant response rating, Giant foxtail: 7
Giant foxtail; [9]
  Giant foxtail plant response rating: 10
Giant foxtail; [10]
  Giant foxtail plant response rating: 3
Giant foxtail; [11]
  Giant foxtail plant response rating: 4
pigweed; [1]
  Redroot pigweed plant response rating: 0
pigweed; [5]
  Redroot pigweed plant response rating: 0
pigweed; [6]
  Plant response rating, Redroot pigweed: 0
pigweed; [7]
  Plant response rating, Redroot pigweed: 0
pigweed; [8]
  Plant response rating, Redroot pigweed: 1
pigweed; [9]
  Redroot pigweed plant response rating: 6
pigweed; [10]
  Redroot pigweed plant response rating: 0
pigweed; [11]
  Redroot pigweed plant response rating: 0
blackgrass; [1]
  Blackgrass plant response rating: 0
blackgrass; [5]
  Blackgrass plant response rating: 0
blackgrass; [6]
  Plant response rating, Blackgrass: 0
blackgrass; [7]
  Plant response rating, Blackgrass: 0
blackgrass; [8]
  Plant response rating, Blackgrass: 3
blackgrass; [9]
  Blackgrass plant response rating: 4
blackgrass; [10]
  Blackgrass plant response rating: 0
blackgrass; [11]
  Blackgrass plant response rating: 0
rice; [1]
  Rice plant response rating: 0
rice; [2]
  Rice plant response rating: 0
rice; [3]
  Rice plant response rating: 0
rice; [4]
  Rice plant response rating: 0
bedstraw; [12]
  Bedstraw plant response rating: 1
  Plant response rating, Bedstraw: 0
bedstraw; [13]
  Bedstraw plant response rating: 8
bedstraw; [14]
  Plant response rating, Bedstraw: 0
bedstraw; [15]
  Plant response rating, Bedstraw: 0
bedstraw; [16]
  Bedstraw plant response rating: 5
corn; [12]
  Corn plant response rating: 0
  Plant response rating, Corn: 0
corn; [13]
  Corn plant response rating: 3
corn; [14]
  Plant response rating, Corn: 0
corn; [15]
  Plant response rating, Corn: 0
corn; [16]
  Corn plant response rating: 0
corn; [17]
  Corn plant response rating: 4
velvetleaf; [1]
  Velvetleaf plant response rating: 0
velvetleaf; [5]
  Velvetleaf plant response rating: 0
velvetleaf; [6]
  Plant response rating, Velvetleaf: 0
velvetleaf; [7]
  Plant response rating, Velvetleaf: 0
velvetleaf; [8]
  Plant response rating, Velvetleaf: 0
velvetleaf; [9]
  Velvetleaf plant response rating: 0
velvetleaf; [10]
  Velvetleaf plant response rating: 0
velvetleaf; [11]
  Velvetleaf plant response rating: 0
crabgrass; [1]
  Crabgrass plant response rating: 1
crabgrass; [5]
  Crabgrass plant response rating: 5
crabgrass; [6]
  Plant response rating, Crabgrass: 0
crabgrass; [7]
  Plant response rating, Crabgrass: 1
crabgrass; [8]
  Plant response rating, Crabgrass: 6
crabgrass; [9]
  Crabgrass plant response rating: 10
crabgrass; [10]
  Crabgrass plant response rating: 1
crabgrass; [11]
  Crabgrass plant response rating: 6
morningglory; [12]
  Morningglory plant response rating: 1
  Plant response rating, Morningglory: 0
morningglory; [13]
  Morningglory plant response rating: 1
morningglory; [14]
  Plant response rating, Morningglory: 0
morningglory; [15]
  Plant response rating, Morningglory: 0
morningglory; [16]
  Morningglory plant response rating: 1
morningglory; [17]
  Morningglory plant response rating: 1
bamyardgrass; [1]
  Barnyardgrass plant response rating: 0
bamyardgrass; [2]
  Barnyardgrass plant response rating: 0
bamyardgrass; [3]
  Barnyardgrass plant response rating: 0
bamyardgrass; [4]
  Barnyardgrass plant response rating: 0
wheat; [1]
  Wheat plant response rating: 0
wheat; [5]
  Wheat plant response rating: 0
wheat; [6]
  Plant response rating, Wheat: 0
wheat; [7]
  Plant response rating, Wheat: 0
wheat; [8]
  Plant response rating, Wheat: 0
wheat; [9]
  Wheat plant response rating: 0
wheat; [10]
  Wheat plant response rating: 0
wheat; [11]
  Wheat plant response rating: 0
